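Five compound concentrations were applied to cells in 96-well plates for 48 hours; endpoints were derived by simple linear interpolation of the resulting dose-response curve. Here, GI50 denotes the concentration required for 50% inhibition of growth. TGI marks complete inhibition of growth.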
Tests used:
Assay in all cases: growth of human tumour cells (NCI), 48 h
[1] = test system: SNB-19 CNS
[2] = test system: EKVX NSCLC
[3] = test system: SK-MEL-2 melanoma
[4] = test system: SN12C renal
[5] = test system: HL-60(TB) leukemia
[6] = test system: HCC-2998 colon
[7] = test system: OVCAR-4 ovarian
[8] = test system: RPMI-8226 leukemia
[9] = test system: T-47D breast
[10] = test system: NCI/ADR-RES ovarian
[11] = test system: IGROV1 ovarian
[12] = test system: PC-3 prostate
[13] = test system: KM12 colon
[14] = test system: TK-10 renal
[15] = test system: A549 NSCLC
[16] = test system: DU-145 prostate
[17] = test system: K-562 leukemia
[18] = test system: HCT-116 colon
[19] = test system: HS 578T breast
[20] = test system: SK-MEL-5 melanoma
[21] = test system: HOP-62 NSCLC
[22] = test system: SF-295 CNS
[23] = test system: UO-31 renal
[24] = test system: MDA-MB-435
[25] = test system: SK-MEL-28 melanoma
[26] = test system: HCT-15 colon
[27] = test system: NCI-H23 lung
[28] = test system: 786-0 renal
[29] = test system: ACHN renal
[30] = test system: U251 CNS
[31] = test system: SW-620 colon
[32] = test system: MOLT-4 leukemia
[33] = test system: OVCAR-5 ovarian
[34] = test system: LOX IMVI melanoma
[35] = test system: HOP-92 NSCLC
[36] = test system: SF-268 CNS
[37] = test system: OVCAR-3 ovarian
[38] = test system: BT-549 breast
[39] = test system: NCI-H522 lung
[40] = test system: UACC-62 melanoma
[41] = test system: SK-OV-3 ovarian
[42] = test system: RXF 393 renal
[43] = test system: OVCAR-8 ovarian
[44] = test system: MDA-MB-231 breast
[45] = test system: NCI-H226 lung
[46] = test system: COLO 205 colon
[47] = test system: SNB-75 CNS
[48] = test system: UACC-257 melanoma
[49] = test system: MCF7 breast
[50] = test system: HT29 colon
[51] = test system: NCI-H460 lung
[52] = test system: M14 melanoma
[53] = test system: A498 renal
[54] = test system: MALME-3M melanoma
[55] = test system: CCRF-CEM leukemia
[56] = test system: SF-539 CNS
[57] = test system: SR leukemia

For `C=C1[C@@H](C)C2[C@H](Cc3ccccc3)NC(=O)[C@]23[C@H](OC(C)=O)/C=C/[C@@](C)(O)C(=O)[C@@H](C)C/C=C/[C@H]3[C@@H]1O` (stereo not given in full), the GI50 [1] was 0.265 µM, the TGI [1] was over 16.7 µM and the GI50 [2] was 0.975 µM. For the same compound, the TGI [2] was over 16.7 µM, the GI50 [3] was over 16.7 µM and the TGI [3] was over 16.7 µM. It also gave a GI50 [4] of over 16.7 µM, a TGI [4] of over 16.7 µM and a GI50 [5] of 5.31 µM. For the same compound, the TGI [5] was over 16.7 µM, the GI50 [6] was over 16.7 µM and the TGI [6] was over 16.7 µM. It also gave a GI50 [7] of 0.824 µM, a TGI [7] of over 16.7 µM and a GI50 [8] of 3.84 µM. For the same compound, the TGI [8] was over 16.7 µM, the GI50 [9] was over 16.7 µM and the TGI [9] was over 16.7 µM. The GI50 [10] was over 16.7 µM, the TGI [10] was over 16.7 µM and the GI50 [11] was 0.574 µM. The TGI [11] was over 16.7 µM, the GI50 [12] was over 16.7 µM and the TGI [12] was over 16.7 µM. The GI50 [13] was over 16.7 µM, the TGI [13] was over 16.7 µM and the GI50 [14] was 0.714 µM. It also gave a TGI [14] of over 16.7 µM, a GI50 [15] of 0.915 µM and a TGI [15] of over 16.7 µM. It also gave a GI50 [16] of 7.04 µM, a TGI [16] of over 16.7 µM and a GI50 [17] of over 16.7 µM. For the same compound, the TGI [17] was over 16.7 µM, the GI50 [18] was 0.718 µM and the TGI [18] was over 16.7 µM. For the same compound, the GI50 [19] was 0.0826 µM, the TGI [19] was over 16.7 µM and the GI50 [20] was 0.955 µM. The TGI [20] was over 11.8 µM, the GI50 [21] was 0.035 µM and the TGI [21] was over 4.4 µM. The GI50 [22] was 1.16 µM, the TGI [22] was over 16.7 µM and the GI50 [23] was 0.251 µM. For the same compound, the TGI [23] was 3.58 µM, the GI50 [24] was over 16.7 µM and the TGI [24] was over 16.7 µM. The GI50 [25] was over 16.7 µM, the TGI [25] was over 16.7 µM and the TGI [26] was over 16.7 µM. For the same compound, the GI50 [27] was over 16.7 µM, the TGI [27] was over 16.7 µM and the TGI [28] was over 16.7 µM. The GI50 [29] was 1.32 µM, the TGI [29] was over 16.7 µM and the GI50 [30] was 0.105 µM. For the same compound, the TGI [30] was over 16.7 µM, the GI50 [31] was over 16.7 µM and the TGI [31] was over 16.7 µM. It also gave a TGI [32] of over 16.7 µM, a GI50 [33] of over 9.92 µM and a TGI [33] of over 16.7 µM. For the same compound, the GI50 [34] was 0.272 µM, the TGI [34] was over 8.76 µM and the GI50 [35] was 0.099 µM. For the same compound, the TGI [35] was 0.699 µM, the GI50 [36] was 0.228 µM and the TGI [36] was over 16.7 µM. For the same compound, the GI50 [37] was over 16.7 µM, the TGI [37] was over 16.7 µM and the GI50 [38] was 0.528 µM. For the same compound, the TGI [38] was over 16.7 µM, the TGI [39] was over 16.7 µM and the GI50 [40] was over 16.7 µM. The TGI [40] was over 16.7 µM, the GI50 [41] was 0.0997 µM and the TGI [41] was over 15.2 µM. It also gave a GI50 [42] of 0.105 µM, a TGI [42] of 4.19 µM and a GI50 [43] of over 16.7 µM. For the same compound, the TGI [43] was over 16.7 µM, the GI50 [44] was 0.366 µM and the TGI [44] was over 16.7 µM. For the same compound, the GI50 [45] was 16.5 µM, the TGI [45] was over 16.7 µM and the GI50 [46] was 2.32 µM. For the same compound, the TGI [46] was over 16.7 µM, the GI50 [47] was 0.0126 µM and the TGI [47] was 0.12 µM. The GI50 [48] was over 16.7 µM, the TGI [48] was over 16.7 µM and the GI50 [49] was 0.756 µM. The TGI [49] was over 16.7 µM, the GI50 [50] was 0.0933 µM and the TGI [50] was over 16.7 µM. It also gave a GI50 [51] of 0.571 µM, a TGI [51] of over 16.7 µM and a GI50 [52] of over 11.4 µM. It also gave a TGI [52] of over 16.7 µM, a GI50 [53] of 0.11 µM and a TGI [53] of 0.826 µM. The GI50 [54] was over 16.7 µM, the TGI [54] was over 16.7 µM and the GI50 [55] was over 11.8 µM. It also gave a TGI [55] of over 16.7 µM, a GI50 [56] of 0.322 µM and a TGI [56] of over 16.7 µM. The GI50 [57] was over 15.7 µM and the TGI [57] was over 16.7 µM.
